Bounds are passed on as bounds.

In the assay the target is EGFR (UniProt P00533). The experiment in a line: Inhibition of EGFR Kinase Activity.
EGFR, sequence (P00533 whole entry, looked up): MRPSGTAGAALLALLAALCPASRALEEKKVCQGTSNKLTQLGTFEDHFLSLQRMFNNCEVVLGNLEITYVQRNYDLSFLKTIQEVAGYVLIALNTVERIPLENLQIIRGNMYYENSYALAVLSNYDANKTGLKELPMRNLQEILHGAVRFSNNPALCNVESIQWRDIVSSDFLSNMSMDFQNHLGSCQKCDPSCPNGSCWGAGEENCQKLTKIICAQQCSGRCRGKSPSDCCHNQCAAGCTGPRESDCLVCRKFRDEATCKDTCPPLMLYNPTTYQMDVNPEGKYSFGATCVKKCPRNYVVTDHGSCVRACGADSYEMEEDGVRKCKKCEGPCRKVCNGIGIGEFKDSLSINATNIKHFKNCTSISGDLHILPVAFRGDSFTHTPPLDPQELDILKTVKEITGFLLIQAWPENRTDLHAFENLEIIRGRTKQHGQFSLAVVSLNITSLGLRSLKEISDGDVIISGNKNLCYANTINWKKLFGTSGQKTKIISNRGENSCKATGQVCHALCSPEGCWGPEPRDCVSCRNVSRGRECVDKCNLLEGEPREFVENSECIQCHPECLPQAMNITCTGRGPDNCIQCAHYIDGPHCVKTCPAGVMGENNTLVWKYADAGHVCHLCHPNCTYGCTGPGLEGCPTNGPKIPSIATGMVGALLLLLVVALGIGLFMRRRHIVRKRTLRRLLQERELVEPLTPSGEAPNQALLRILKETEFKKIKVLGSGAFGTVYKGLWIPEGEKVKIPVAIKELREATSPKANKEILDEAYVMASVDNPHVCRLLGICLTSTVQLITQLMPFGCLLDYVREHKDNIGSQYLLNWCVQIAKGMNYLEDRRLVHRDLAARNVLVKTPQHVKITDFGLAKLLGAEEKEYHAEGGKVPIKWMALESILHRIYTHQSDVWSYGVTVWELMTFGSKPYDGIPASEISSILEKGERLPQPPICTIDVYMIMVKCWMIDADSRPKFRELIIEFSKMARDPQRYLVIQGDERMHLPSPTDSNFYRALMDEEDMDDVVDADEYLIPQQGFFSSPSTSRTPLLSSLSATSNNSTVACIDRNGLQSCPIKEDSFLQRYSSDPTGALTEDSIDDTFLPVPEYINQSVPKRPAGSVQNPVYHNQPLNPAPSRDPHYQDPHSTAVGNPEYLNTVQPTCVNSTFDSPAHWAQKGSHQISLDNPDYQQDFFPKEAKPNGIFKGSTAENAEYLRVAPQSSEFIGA
Take `C=CCN(c1ncnc(Nc2ccc(NC(=O)C=C)cc2)n1)N1CNc2ccccc21`: the IC50 (in general, the point on the concentration scale where inhibition reaches its midpoint) was less than 50 µM. Next, `C=CC(=O)Nc1cccc(Nc2ncnc(N(CC)c3ccc(OCCO)cc3)n2)c1`: less than 50 µM; `C=CC(=O)Nc1cccc(Nc2ncnc(N(CC)n3c(=O)n(C(=O)C(C)(C)C)c4ccccc43)n2)c1`: less than 50 µM; `C=CC(=O)N1CCc2cc(Nc3ncnc(Nc4ccc5c(cnn5Cc5ccccc5)c4)n3)ccc21`: less than 50 µM.

Take `C=CCN(c1ccc2c(cnn2Cc2ccccc2)c1)c1ncnc(Nc2cccc(NC(=O)C=C)c2)n1`: the IC50 was less than 50 µM.

In turn, `C=CCN(c1cccc(C)c1)c1ncnc(Nc2cccc(NC(=O)C#CC)c2)n1` showed an IC50 of less than 50 µM. In turn, `C=CC(=O)Nc1cccc(Nc2ncnc(Nc3ccc(OCCOC)c(OC)c3)n2)c1` returned an IC50 of less than 50 µM. Next, `CC#CC(=O)Nc1cccc(Nc2ncnc(Nc3ccc(OC)c(OCCOC)c3)n2)c1`: less than 50 µM; `C=CC(=O)Nc1cccc(Nc2ncnc(NN3CCCc4cc(OC)ccc43)n2)c1`: less than 50 µM. Regarding `C=CC(=O)Nc1cccc(Nc2ncnc(Nc3cccc(C(N)=O)c3)n2)c1`, the IC50 was less than 50 µM. The value for `C=CC(=O)Nc1ccc(Nc2ncnc(N(C)c3cccc4ccccc34)n2)cc1` was less than 50 µM; that for `C#CCC(=O)Nc1cccc(Nc2ncnc(NN3CCCc4cc(Cl)ccc43)n2)c1` was less than 50 µM. Next, `C=CCN(c1ccc(OCc2ccccc2)cc1)c1ncnc(Nc2cccc(NC(=O)C#CC)c2)n1`: less than 50 µM; `C=CC(=O)Nc1cc(Nc2ncnc(N(C)c3ccc(OCc4ccccc4)c(Cl)c3)n2)ccc1OCCCC1CCN(C)CC1`: less than 50 µM; `CC#CC(=O)Nc1cccc(Nc2ncnc(NC3CC3c3ccccc3)n2)c1` (stereo unspecified): less than 50 µM.

For the molecule `C=CC(=O)Nc1ccc(Nc2ncnc(N(CC)c3ccc4c(cnn4Cc4ccccc4)c3)n2)cc1`, the IC50 is less than 50 µM. `C=CC(=O)Nc1ccc(Nc2ncnc(N(C)c3cccc(Cl)c3)n2)cc1` yielded an IC50 of less than 50 µM.

Take `CC#CC(=O)Nc1cc(Nc2ncnc(Nc3cccc(Cl)c3)n2)ccc1OCCCC1CCN(C)CC1`: the IC50 is less than 50 µM. `C=CC(=O)n1ncc2cc(Nc3ncnc(Nc4ccc5c(cnn5Cc5ccccc5)c4)n3)ccc21` came in with a half-inhibitory concentration (IC50) of less than 50 µM. For the molecule `C=CC(=O)Nc1ccc(Nc2ncnc(N(C)c3cccc(CC(=O)OC)c3)n2)cc1`, the IC50 is less than 50 µM.

In the case of `C=C/C=C/C(=O)Nc1cccc(Nc2ncnc(NC3CC3c3ccc(Cl)cc3)n2)c1` (stereo unspecified), the concentration for half-maximal inhibition (IC50) is less than 50 µM. Next, `C=CC(=O)Nc1cccc(Nc2ncnc(NN3CCCc4cc(C)ccc43)n2)c1`: less than 50 µM; `C=CC(=O)Nc1cc(Nc2ncnc(Nc3ccc4c(cnn4Cc4ccccc4)c3)n2)ccc1OCCCC1CCN(C)CC1`: less than 50 µM; `C=CC(=O)Nc1cccc(Nc2ncnc(Nc3cc(Cl)cc4ccccc34)n2)c1`: less than 50 µM. Next, `CC#CC(=O)Nc1cccc(Nc2ncnc(Nc3ccc(OCCC)c(OCCC)c3)n2)c1`: less than 50 µM; `C=CCN(c1ncnc(Nc2cccc(NC(=O)C=C)c2)n1)n1c(=O)[nH]c2ccccc21`: less than 50 µM; `C=CC(=O)Nc1ccc(Nc2ncnc(Nc3ccc(OCc4ccccc4)cc3)n2)cc1`: less than 50 µM. The value for `C=CC(=O)Nc1cccc(Nc2ncnc(Nn3c(=O)[nH]c4ccccc43)n2)c1` was less than 50 µM; that for `C=CC(=O)Nc1cc(Nc2ncnc(Nc3ccc4c(ccn4Cc4ccccc4)c3)n2)ccc1OCCCN1CCOCC1` was less than 50 µM. `C=CC(=O)Nc1cccc(Nc2ncnc(Nc3cc(OC)c(OC)c(OC)c3)n2)c1` displayed an IC50 of less than 50 µM.

Molecule `C=CC(=O)Nc1ccc(Nc2ncnc(N(CC)c3cccc4ccccc34)n2)cc1` yielded an IC50 of less than 50 µM. Next, `C=CCN(c1ccc(OC)c(OCCOC)c1)c1ncnc(Nc2ccc(NC(=O)C=C)cc2)n1`: less than 50 µM; `C=CC(=O)Nc1cccc(Nc2ncnc(N(C)C3CC3c3ccc(Cl)cc3)n2)c1` (stereo unspecified): less than 50 µM; `C=CC(=O)Nc1cccc(Nc2ncnc(N(CC)c3cc(Cl)ccc3C)n2)c1`: less than 50 µM. `CC#CC(=O)Nc1cccc(Nc2ncnc(N(C)c3ccc(OCc4ccccc4)cc3)n2)c1` came in with a concentration for half-maximal inhibition (IC50) of less than 50 µM. Next, `C=CC(=O)Nc1cccc(Nc2ncnc(Nc3ccc(OCc4ccc(Cl)c(Cl)c4)c(C(F)(F)F)c3)n2)c1`: less than 50 µM; `C=CCN(c1ncnc(Nc2ccc(NC(=O)C=C)cc2)n1)C1CC1c1ccccc1` (stereo unspecified): less than 50 µM. The value for `C=CCN(c1cccc(Cl)c1)c1ncnc(Nc2cccc(NC(=O)C#CC)c2)n1` was less than 50 µM; that for `C=CCN(c1ccc(OCCO)cc1)c1ncnc(Nc2cccc(NC(=O)C#CC)c2)n1` was less than 50 µM; that for `CC#CC(=O)Nc1cccc(Nc2ncnc(N(C)c3ccc4c(cnn4Cc4ccccc4)c3)n2)c1` was less than 50 µM. Next, `C=CCN(c1ncnc(Nc2ccc(NC(=O)C=C)cc2)n1)c1cccc2ccccc12`: less than 50 µM; `C=CCN(c1ccc(OCCC)c(OCCC)c1)c1ncnc(Nc2cccc(NC(=O)C=C)c2)n1`: less than 50 µM. The molecule `C=CCN(c1ccc(OCc2ccccc2)cc1)c1ncnc(Nc2cccc(NC(=O)C=C)c2)n1` showed a half-maximal inhibitory concentration (IC50) of less than 50 µM.

Molecule `C=CC(=O)N(CCCN1CCOCC1)c1cccc(Nc2ncnc(NC3CC3c3ccc(Cl)cc3)n2)c1` (stereo unspecified) gave a 50% inhibitory concentration (IC50) of less than 50 µM. `C=CC(=O)Nc1cccc(Nc2ncnc(N(CC)c3cccc(C)c3)n2)c1`: the IC50 is less than 50 µM. `C=CCN(c1ncnc(Nc2cccc(NC(=O)C=C)c2)n1)C1CC1c1ccc(Cl)cc1` (stereo unspecified) returned a 50% inhibitory concentration (IC50) of less than 50 µM. Next, `C=CC(=O)Nc1ccc(Nc2ncnc(N(CC)c3ccc(OC)c(OC)c3)n2)cc1`: less than 50 µM; `C=CC(=O)Nc1cccc(Nc2ncnc(N(CC)c3ccc(OC)c(OCCOC)c3)n2)c1`: less than 50 µM. The value for `C=CC(=O)n1ncc2ccc(Nc3ncnc(Nc4ccc5c(cnn5Cc5ccccc5)c4)n3)cc21` was less than 50 µM; that for `C=CCN(c1ccc(OCC)c(OCC)c1)c1ncnc(Nc2ccc(NC(=O)C=C)cc2)n1` was less than 50 µM. Next, `CC#CC(=O)Nc1cccc(Nc2ncnc(N(C)c3ccc(C(=O)OC)cc3)n2)c1`: less than 50 µM; `C=CC(=O)Nc1ccc(Nc2ncnc(N(C)c3ccc(OCCO)cc3)n2)cc1`: less than 50 µM; `C=CCN(c1ncnc(Nc2cccc(NC(=O)C#CC)c2)n1)C1CC1c1ccccc1` (stereo unspecified): less than 50 µM. Consider `C=CC(=O)Nc1ccc(Nc2ncnc(N(C)c3cccc(C)c3)n2)cc1`, for which the half-inhibitory concentration (IC50) was less than 50 µM. Consider `CC#CC(=O)Nc1cccc(Nc2ncnc(N(CC)c3ccc(OCc4ccccc4)cc3)n2)c1`, for which the half-maximal inhibitory concentration (IC50) was less than 50 µM. The value for `C=CCN(c1ncnc(Nc2cccc(NC(=O)C#CC)c2)n1)n1c(=O)n(C(=O)C(C)(C)C)c2ccccc21` was less than 50 µM; that for `C=CC(=O)N(CCCN1CCOCC1)c1cccc(Nc2ncnc(Nc3ccc(OCc4ccccc4)cc3)n2)c1` was less than 50 µM. Next, `C=CC(=O)Nc1ccc(Nc2ncnc(Nc3cccc(S(=O)(=O)c4ccc([N+](=O)[O-])cc4)c3)n2)cc1`: less than 50 µM. Next, `C=CC(=O)Nc1cccc(Nc2ncnc(N(C)c3cc(Cl)cc4ccccc34)n2)c1`: less than 50 µM; `CC#CC(=O)Nc1cccc(Nc2ncnc(N(CC)c3cccc(Cl)c3)n2)c1`: less than 50 µM. `C=CC(=O)N(CCCN1CCOCC1)c1cccc(Nc2ncnc(Nc3ccc(C(=O)OC)cc3)n2)c1` came in with an IC50 of less than 50 µM. Next, `C=CCC(=O)Nc1cccc(Nc2ncnc(Nc3ccc4NN(=Cc4c3)Cc5ccccn5)n2)c1`: less than 50 µM; `CC#CC(=O)Nc1cccc(Nc2ncnc(N(CC)c3ccc(OCCC)c(OCCC)c3)n2)c1`: less than 50 µM. Next, `C=CC(=O)Nc1ccc(Nc2ncnc(Nc3cccc(C(N)=O)c3)n2)cc1`: less than 50 µM; `C=CC(=O)Nc1cccc(Nc2ncnc(N(C)c3cccc(S(=O)(=O)c4ccc([N+](=O)[O-])cc4)c3)n2)c1`: less than 50 µM; `C=CC(=O)Nc1ccc(Nc2ncnc(NN3CCCc4cc(Cl)ccc43)n2)cc1`: less than 50 µM. Next, `C=CCN(c1cccc(S(=O)(=O)c2ccc([N+](=O)[O-])cc2)c1)c1ncnc(Nc2cccc(NC(=O)C=C)c2)n1`: less than 50 µM. `C=CC(=O)Nc1cccc(Nc2ncnc(NC3CC3c3ccc(Cl)cc3)n2)c1` (stereo unspecified) yielded a half-inhibitory concentration (IC50) of less than 50 µM. Next, `CC#CC(=O)Nc1cccc(Nc2ncnc(N(C)c3ccc(F)c(Cl)c3)n2)c1`: less than 50 µM. Next, `C=CC(=O)Nc1cccc(Nc2ncnc(Nc3ccc(OCc4ccccc4)cc3)n2)c1`: less than 50 µM. In turn, `C=CC(=O)Nc1cc(Nc2ncnc(Nc3ccc(OCc4ccccc4)c(Cl)c3)n2)ccc1OCCCC1CCN(C)CC1` displayed a 50% inhibitory concentration (IC50) of less than 50 µM. The value for `C=CC(=O)Nc1ccc(Nc2ncnc(Nc3cccc(C)c3)n2)cc1` was less than 50 µM; that for `CC#CC(=O)Nc1cccc(Nc2ncnc(Nc3cc(Cl)cc4ccccc34)n2)c1` was less than 50 µM. The value for `C=CC(=O)Nc1cc(Nc2ncnc(NN3CCCc4ccc(Cl)cc43)n2)ccc1OCCCN1CCOCC1` was less than 50 µM. The value for `C=CC(=O)Nc1ccc(Nc2ncnc(N(CC)C3CC3c3ccccc3)n2)cc1` (stereo unspecified) was less than 50 µM; that for `C=CCN(c1ccc(OCCO)cc1)c1ncnc(Nc2ccc(NC(=O)C=C)cc2)n1` was less than 50 µM; that for `C=CCN(c1cccc(C(N)=O)c1)c1ncnc(Nc2cccc(NC(=O)C=C)c2)n1` was less than 50 µM. Molecule `C=CC(=O)Nc1ccc(Nc2ncnc(N(C)c3ccc(F)c(Cl)c3)n2)cc1` came in with an IC50 of less than 50 µM. The value for `C=CCN(c1ncnc(Nc2ccc(NC(=O)C=C)cc2)n1)c1cc(Cl)ccc1C` was less than 50 µM; that for `C=CCN(c1ncnc(Nc2cccc(NC(=O)C#CC)c2)n1)c1cc(Cl)ccc1C` was less than 50 µM. The value for `C=CC(=O)Nc1cccc(Nc2ncnc(Nc3cccc(CC(=O)OC)c3)n2)c1` was less than 50 µM; that for `C=CC(=O)Nc1ccc(Nc2ncnc(N(C)c3ccc(OC)c(OCCOC)c3)n2)cc1` was less than 50 µM; that for `CC#CC(=O)Nc1cccc(Nc2ncnc(N(CC)c3cccc(S(=O)(=O)c4ccc([N+](=O)[O-])cc4)c3)n2)c1` was less than 50 µM. The value for `C=CC(=O)Nc1cccc(Nc2ncnc(Nc3ccc4c(ccn4Cc4ccccc4)c3)n2)c1` was less than 50 µM; that for `C=CC(=O)Nc1cccc(Nc2ncnc(N(CC)c3cccc(C(N)=O)c3)n2)c1` was less than 50 µM. In turn, `C=CC(=O)Nc1ccc(Nc2ncnc(N(C)c3cc(Cl)ccc3C)n2)cc1` gave an IC50 of less than 50 µM.

Values taken from the Kinase Knowledgebase extract (Sharma et al. 2016).
